Patent publication US20110257256A1, “CANNABINOIDS FOR USE IN TREATING OR […] […] […]” (priority 2008, published 2011)
≈ marks a conversion by molar mass, not a printed value. Where two headings read alike, the source gives them in different places.

What was measured:
IDO mRNA = IDO mRNA expression in PHA stimulated PBMC (real-time RT-PCR); format: cell-based, human; details: 5 μg/ml (highest concentration tested), PHA 5 μg/ml, 6 h
Protocol: (§1) For quantification of IDO and IFN-γ gene expression, RNA was extracted from PBMC using Trizol reagent (Invitrogen, Vienna, Austria) and reverse-transcribed using Superscript II reverse transcriptase (Invitrogen). Thirty cyles of PCR were performed using Sure Start Taq polymerase (Stratagene, La Jolla, Calif.). Levels of mRNA were quantified by real-time PCR with the ABI/PRISM 7700 sequence detection system (PE Applied Biosystems, Foster City, Calif.). 18sRNA was used as an invariant endogenous control. Specific primers and an internal fluorescent TaqMan probe were designed as follows: human 18sRNA primers, 5′-[…]-3′ (SEQ ID NO:1) and 5′-[…]-3′ (SEQ ID NO:2); 18sRNA probe, 5′-FAM-[…]-TAMRA-3′ (SEQ ID NO:3); human IDO primers, 5′-[…]-3′ (SEQ ID NO:4) and 5′-[…]-3′ (SEQ ID NO:5); IDO probe, 5′-FAM-[…]-TAMRA-3′ (SEQ ID NO:6); human IFN-γ primers, 5′[…]-3′ (SEQ ID NO:7), 5′-[…]-3′ (SEQ ID NO:8); IFN-γ probe, 5′-FAM-[…]-TAMRA-3′ (SEQ ID NO:9). Relative mRNA expression was calculated by dividing the relative quantity of each PCR product by the relative quantity of 18sRNA in each sample.

IFN-γ mRNA = IFN-γ mRNA expression in PHA stimulated PBMC (real-time RT-PCR); format: cell-based, human; details: 5 μg/ml (highest concentration tested), PHA 5 μg/ml, 6 h
Protocol: as §1

neopterin formation = experiment: Neopterin formation in PBMC supernatants (ELISA); format: cell-based; details: Homo sapiens
[1] = tested on: indoleamine 2,3-dioxygenase (IDO); experiment: IDO activity (kyn/trp by HPLC) in THP-1 cells; format: cell-based; details: for IC50: Homo sapiens, LPS (1 μg/ml) stimulated THP-1 cells, 48 h, read-out: IC50 decrease of kyn/trp (LPS-induced tryptophan degradation); for effect on tryptophan metabolism (kyn/trp): unstimulated THP-1 cells, CBD effect at the highest concentration tested
CB2 receptors = CB2 receptors (Homo sapiens, UniProt P34972); details: reported; cited from earlier work
CB2 receptors, sequence (P34972 whole entry): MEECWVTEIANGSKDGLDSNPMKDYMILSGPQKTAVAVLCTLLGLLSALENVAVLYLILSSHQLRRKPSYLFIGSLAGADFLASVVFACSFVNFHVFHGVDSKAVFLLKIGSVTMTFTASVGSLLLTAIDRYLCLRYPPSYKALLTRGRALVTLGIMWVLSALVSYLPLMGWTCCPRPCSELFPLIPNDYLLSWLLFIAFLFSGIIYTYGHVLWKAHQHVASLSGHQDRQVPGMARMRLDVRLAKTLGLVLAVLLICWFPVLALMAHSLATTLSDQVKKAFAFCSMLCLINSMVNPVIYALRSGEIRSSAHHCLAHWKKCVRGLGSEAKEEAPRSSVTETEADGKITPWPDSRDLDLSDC

[2] = tested on: indoleamine 2,3-dioxygenase (IDO); experiment: IDO activity (kyn/trp by HPLC) in PBMC supernatants; format: cell-based, human; details: for IC50: Homo sapiens, PBMC; for effect of low doses on activity of the IDO enzyme: low doses 0.01-0.1 μg/ml, mitogen-stimulated PBMC
[3] = tested on: Myelomonocytic THP-1 cells; experiment: Cell viability of THP-1 cells by MTT-test and trypan blue exclusion; format: cell-based; details: 0.1-10 μg/ml, unstimulated or LPS (1 μg/ml) stimulated THP-1 cells, 48 h
Protocol: Myelomonocytic THP-1 cells were obtained from European Collection of Cell Cultures (ECACC). […] Afterwards, cells were stimulated or not with 1 μg/ml LPS for 48 h.
(§2) After incubation of PBMC with mitogens Con A or PHA (each 10 μg/ml) or treatment of THP-1 cells with LPS (1 μg/ml ), with or without cannabinoids for 48 h, cell viability was measured by MTT-test (3-[4,5-[…]]-2,5 diphenyl tetrazolium bromide) and by trypan blue exclusion method in three experiments performed in triplicates. No toxicity could be observed with solvent (0.1% EtOH; data not shown). IC50 were calculated by the CalcuSyn software from Biosoft, Cambridge, UK, using the original concept of Chou and Talalay (Chou and Talalay, 1984, Adv. Enzyme Regul. 22, 27-55).

[4] = tested on: human peripheral blood mononuclear cells (PBMC); experiment: Cell viability/proliferation of PBMC by MTT-test and trypan blue exclusion; format: cell-based; details: 48 h, read-out: IC50 number of viable cells
Protocol: PBMC were isolated from whole blood obtained from healthy donors of whom written informed consent was obtained that their donated blood might be used for scientific purposes in case when it was not selected for transfusion. Separation of blood cells was performed using density centrifugation (Lymphoprep, Nycomed Pharma AS, Oslo, Norway). After isolation, PBMC were washed three times in phosphate buffered saline containing 0.2% 0.5 mM EDTA. Cells were maintained in RPMI 1640 supplemented with 10% heat-inactivated fetal calf serum (Biochrom, Berlin, Germany), 2 mM glutamine (Serva, Heidelberg, Germany) and 0.05 mg/ml gentamicin (Bio-Whittaker, Walkersville, Md.) in a humidified atmosphere containing 5% CO2 for 48 h. This procedure was observed earlier to yield best reproducible results when applied for testing of anti-inflammatory effects of compounds or drugs (Winkler et al., 2007, Int. Arch. Allergy Immunol. 142, 127-132). For each of the four experiments run in duplicates, PBMC were freshly prepared.
Consequently, the cells were stimulated or not with 10 μg/ml PHA or Con A for 48 h.
as §2

CB1/CB2 = details: reported; cited from earlier work
[5] = 48 h, Con A-stimulated PBMC (10 μg/ml), 48 h, read-out: IC50 mitogen-induced neopterin production
[6] = 48 h, PHA-stimulated PBMC (10 μg/ml), 48 h, read-out: IC50 mitogen-induced neopterin production
[7] = unstimulated PBMC, read-out: IC50 release of neopterin
[8] = 48 h, Con A-stimulated PBMC (10 μg/ml), 48 h, read-out: IC50 mitogen-induced IDO activity (kyn/trp)
[9] = 48 h, PHA-stimulated PBMC (10 μg/ml), 48 h, read-out: IC50 mitogen-induced IDO activity (kyn/trp)
[10] = unstimulated PBMC, 0.01-10 μg/ml, read-out: IC50 decrease of kyn/trp
[11] = Con A-stimulated PBMC (10 μg/ml)
[12] = unstimulated PBMC, 0.01-20 μg/ml

SMILES	inhibition of mitogen-stimulated expression of IDO mRNA (IDO mRNA)	inhibition of mitogen-stimulated expression of IFN-γ mRNA (IFN-γ mRNA)	IC50 (neopterin formation; [5]) [µg/mL]	IC50 (neopterin formation; [6]) [µg/mL]	IC50 (neopterin formation; [7]) [µg/mL]	IC50 [1] [µg/mL]	effect on tryptophan metabolism (kyn/trp) [1]	affinity (CB2 receptors)	IC50 [2, 8] [µg/mL]	IC50 [2, 9] [µg/mL]	IC50 [2, 10] [µg/mL]	effect of low doses on activity of the IDO enzyme [2]	influence on viability of THP-1 cells [3]	IC50 [4, 11] [µg/mL]	IC50 ([4]; PHA-stimulated PBMC (10 μg/ml)) [µg/mL]	IC50 [4, 12] [µg/mL]	KB antagonism of CB1/CB2 agonists (CB1/CB2)
C=C(C)[C@@H]1CCC(C)=C[C@H]1c1c(O)cc(CCCCC)cc1O [CBD, 2-[(1R,6R)-3-methyl-6-prop-1-en-2-yl-1-cyclohex-2-enyl]-5-pentylbenzene-1,3-diol]	almost completely, inhibit	almost completely, inhibit	3.1 (≈ 9.86 µM)	3.7 (≈ 11.8 µM)	8.2 (≈ 26.1 µM)	0.3 (≈ 0.954 µM)	faint suppression of tryptophan degradation	micromolar range	2.8 (≈ 8.9 µM)	1.4 (≈ 4.45 µM)	1.2 (≈ 3.82 µM)	modest but significant increase	did not show any influence	8.6 (≈ 27.3 µM)	8.5 (≈ 27 µM)	7.3 (≈ 23.2 µM)	low nanomolar range
CCCCCc1cc(O)c2c(c1)OC(C)(C)[C@@H]1CCC(C)=C[C@@H]21 [THC, (6aR,10aR)-6,6,9-Trimethyl-3-pentyl-6a, 7,8,10a-tetrahydro-6H-benzo[c]chromen-1-ol]	almost completely, inhibit	almost completely, inhibit	6.7 (≈ 21.3 µM)	5.3 (≈ 16.9 µM)	16.7 (≈ 53.1 µM)	0.6 (≈ 1.91 µM)	did not influence tryptophan metabolism	–	4.2 (≈ 13.4 µM)	5.5 (≈ 17.5 µM)	2.6 (≈ 8.27 µM)	modest but significant increase	did not show any influence	17.5 (≈ 55.6 µM)	15.2 (≈ 48.3 µM)	14.5 (≈ 46.1 µM)	–
